Measurements: PubChem BioAssay AID328 (DTP/NCI, 2004)
“And” between values parts separate entries of the source, which are not always exact repeats. Identical values can stand only once. Inconclusive results and toxic doses are left out.

Test system: BDF1 mice, P388 leukemia ip, median survival T/C
Experiment: NCI In Vivo Anticancer Drug Screen. Data for tumor model P388 Leukemia (intraperitoneal) in B6D2F1 (BDF1) mice
Conditions: endpoint: median survival time, higher = longer survival
Method in brief: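 Reported as T/C, where T is the survival measurement in dosed animals and C the same measurement in vehicle controls.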

[1] = dose: 12.5 mg/kg/injection, schedule: Q04DX003 (ip), vehicle: saline with Tween-80
[2] = dose: 25.0 mg/kg/injection, schedule: Q04DX003 (ip), vehicle: saline with Tween-80
[3] = dose: 50.0 mg/kg/injection, schedule: Q04DX003 (ip), vehicle: saline with Tween-80
[4] = dose: 100.0 mg/kg/injection, schedule: Q04DX003 (ip), vehicle: saline with Tween-80
[5] = dose: 200.0 mg/kg/injection, schedule: Q04DX003 (ip), vehicle: saline with Tween-80
[6] = dose: 3.13 mg/kg/injection, schedule: Q01DX009 (ip), vehicle: saline with Tween-80
[7] = dose: 6.25 mg/kg/injection, schedule: Q01DX009 (ip), vehicle: saline with Tween-80
[8] = dose: 12.5 mg/kg/injection, schedule: Q01DX009 (ip), vehicle: saline with Tween-80
[9] = dose: 50.0 mg/kg/injection, schedule: Q01DX009 (ip), vehicle: saline with Tween-80
[10] = dose: 100.0 mg/kg/injection, schedule: Q01DX009 (ip), vehicle: saline with Tween-80
[11] = dose: 200.0 mg/kg/injection, schedule: Q01DX009 (ip), vehicle: saline with Tween-80
[12] = dose: 100.0 mg/kg/injection, schedule: Q01DX009 (ip), vehicle: saline
[13] = dose: 400.0 mg/kg/injection, schedule: Q01DX009 (ip), vehicle: saline
[14] = dose: 100.0 mg/kg/injection, schedule: Q01DX009 (ip), vehicle: Klucel (hydroxypropylcellulose) (HPC)
[15] = dose: 200.0 mg/kg/injection, schedule: Q04DX003 (ip), vehicle: saline
[16] = dose: 100.0 mg/kg/injection, schedule: Q04DX003 (ip), vehicle: saline
[17] = dose: 200.0 mg/kg/injection, schedule: Q01DX009 (ip), vehicle: saline
[18] = dose: 50.0 mg/kg/injection, schedule: Q04DX003 (ip), vehicle: saline
[19] = dose: 12.5 mg/kg/injection, schedule: Q01DX009 (ip), vehicle: Klucel (hydroxypropylcellulose) (HPC)
[20] = dose: 50.0 mg/kg/injection, schedule: Q01DX009 (ip), vehicle: Klucel (hydroxypropylcellulose) (HPC)

With `O=C(CC(c1ccccc1)c1c(O)c2ccccc2oc1=O)c1ccccc1` (stereo not given) the T/C (dose: 0.39 mg/kg/injection, schedule: Q01DX009 (ip), vehicle: saline with Tween-80) was 108 % of control, the T/C (dose: 0.78 mg/kg/injection, schedule: Q01DX009 (ip), vehicle: saline with Tween-80) was 106 % of control and the T/C (dose: 1.56 mg/kg/injection, schedule: Q01DX009 (ip), vehicle: saline with Tween-80) was 97 % of control. For the same compound, the T/C (dose: 3.12 mg/kg/injection, schedule: Q01DX009 (ip), vehicle: saline with Tween-80) was 90 % of control, the T/C [1] was 120 % of control and the T/C [2] was 109 % of control. The T/C [3] was 92 % of control, the T/C [4] was 101 % of control and the T/C [5] was 108 % of control.

In the case of `CCCCCCCCCCCC1=NCCN1`, the T/C [6] is reported as 96 % of control, the T/C [7] is reported as 100 % of control and the T/C [8] is reported as 104 % of control. The T/C [1] was 96 % of control.

`CCc1nnc2n1N=C(c1ccc(-c3ccccc3)cc1)CS2` was tested, and the T/C [9] was 90 % of control, the T/C [10] was 89 % of control and the T/C [11] was 90 % of control.

`CC1(C)SC2C(NC(=O)Cc3ccccc3)C(=O)N2C1C(=O)O` (stereo not given) was tested, and the T/C [12] was 90 % of control and the T/C [13] was 100 % of control.

For `Cc1ccc(S(=O)(=O)OCCOC(=O)OCCOS(=O)(=O)c2ccc(C)cc2)cc1`, the T/C [9] was 99 % of control, the T/C [10] was 100 % of control and the T/C [11] was 99 % of control.

In the case of `CC(=O)[C@H]1[C@H](C)C[C@H]2[C@@H]3CCC4=CC(=O)CC[C@]4(C)[C@@]3(F)[C@@H](O)C[C@@]21C`, the T/C [14] is reported as 105 % of control, the T/C (dose: 100.0 mg/kg/injection, schedule: Q04DX003 (ip), vehicle: alcohol) is reported as 120 % of control and the T/C (dose: 132.0 mg/kg/injection, schedule: Q04DX003 (ip), vehicle: saline) is reported as 115 % of control. For the same compound, the T/C (dose: 200.0 mg/kg/injection, schedule: Q01DX009 (ip), vehicle: Klucel (hydroxypropylcellulose) (HPC)) was 120 % of control, the T/C [15] was 104 % of control and 120 % of control and the T/C (dose: 300.0 mg/kg/injection, schedule: Q04DX003 (ip), vehicle: saline) was 110 % of control and 113 % of control. The T/C (dose: 400.0 mg/kg/injection, schedule: Q01DX009 (ip), vehicle: Klucel (hydroxypropylcellulose) (HPC)) was 120 % of control and the T/C (dose: 400.0 mg/kg/injection, schedule: Q04DX003 (ip), vehicle: alcohol) was 105 % of control.

`CCCCOCN1CCCCC1` was tested, and the T/C [3] was 108 % of control, the T/C [4] was 120 % of control and the T/C [5] was 104 % of control.

For `CCC(=O)NC`, the T/C [12] was 122 % of control, the T/C [16] was 100 % of control and the T/C [17] was 100 % of control. The T/C [15] was 104 % of control, the T/C [13] was 109 % of control and the T/C (dose: 400.0 mg/kg/injection, schedule: Q04DX003 (ip), vehicle: saline) was 100 % of control.

In the case of `O=C1CCCN1`, the T/C (dose: 50.0 mg/kg/injection, schedule: Q01DX001 (ip), vehicle: saline) is reported as 100 % of control, the T/C [18] is reported as 95 % of control and the T/C (dose: 100.0 mg/kg/injection, schedule: Q01DX001 (ip), vehicle: saline) is reported as 118 % of control. For the same compound, the T/C [12] was 105 % of control, the T/C [16] was 87 % of control and the T/C (dose: 200.0 mg/kg/injection, schedule: Q01DX001 (ip), vehicle: saline) was 100 % of control. The T/C [17] was 110 % of control and the T/C [13] was 110 % of control.

`C[CH2][Pb]([CH2]C)([CH2]C)[O]C(=O)c1ccc(N)cc1` was tested, and the T/C (dose: 0.75 mg/kg/injection, schedule: Q01DX009 (ip), vehicle: Klucel (hydroxypropylcellulose) (HPC)) was 100 % of control, the T/C (dose: 1.5 mg/kg/injection, schedule: Q01DX009 (ip), vehicle: Klucel (hydroxypropylcellulose) (HPC)) was 110 % of control and the T/C (dose: 1.56 mg/kg/injection, schedule: Q01DX009 (ip), vehicle: Klucel (hydroxypropylcellulose) (HPC)) was 111 % of control. For the same compound, the T/C (dose: 3.0 mg/kg/injection, schedule: Q01DX009 (ip), vehicle: Klucel (hydroxypropylcellulose) (HPC)) was 110 % of control and 117 % of control, the T/C (dose: 3.12 mg/kg/injection, schedule: Q01DX009 (ip), vehicle: Klucel (hydroxypropylcellulose) (HPC)) was 114 % of control and 119 % of control and the T/C (dose: 6.0 mg/kg/injection, schedule: Q01DX009 (ip), vehicle: Klucel (hydroxypropylcellulose) (HPC)) was 119 % of control and 122 % of control. The T/C (dose: 6.25 mg/kg/injection, schedule: Q01DX009 (ip), vehicle: Klucel (hydroxypropylcellulose) (HPC)) was 104 % of control, the T/C (dose: 12.0 mg/kg/injection, schedule: Q01DX009 (ip), vehicle: Klucel (hydroxypropylcellulose) (HPC)) was 99 % of control and the T/C [19] was 93 % of control and 106 % of control.

`C[N+](C)(C)Cc1ccccc1` was tested, and the T/C [2] was 95 % of control and the T/C [3] was 112 % of control.

With `C=CCc1cn(C2CC(O)C(CO)O2)c(=O)[nH]c1=O` (stereo not given) the T/C [12] was 116 % of control, the T/C [17] was 108 % of control and the T/C [13] was 116 % of control.

`CCCCCCC/C=C\c1cnc2nc(N)nc(N)c2n1` was tested, and the T/C [4] was 92 % of control, the T/C [5] was 89 % of control and the T/C (dose: 400.0 mg/kg/injection, schedule: Q04DX003 (ip), vehicle: saline with Tween-80) was 92 % of control.

In the case of `NNc1c(C(N)=O)c2c(N)ncnc2n1C1OC(CO)C(O)C1O` (stereo not given), the T/C (dose: 50.0 mg/kg/injection, schedule: Q04DX003 (ip), vehicle: water) is reported as 171 % of control, the T/C (dose: 100.0 mg/kg/injection, schedule: Q04DX003 (ip), vehicle: water) is reported as 166 % of control and the T/C (dose: 200.0 mg/kg/injection, schedule: Q04DX003 (ip), vehicle: water) is reported as 199 % of control.

In the case of `CC1(C)OCC(C2OC3OC(C)(C)OC3C2OP(=O)(N2CC2)N2CC2)O1` (stereo not given), the T/C [9] is reported as 103 % of control, the T/C [10] is reported as 115 % of control and the T/C [11] is reported as 123 % of control.

In the case of `CC/C(C)=C1\OC(=O)C(C)C(O)C(Cc2cccnc2)NC(=O)C(NC(=O)c2ncccc2O)C(C)OC1=O` (stereo not given), the T/C [6] is reported as 97 % of control, the T/C [7] is reported as 106 % of control and the T/C [8] is reported as 103 % of control. The T/C (dose: 25.0 mg/kg/injection, schedule: Q01DX009 (ip), vehicle: saline with Tween-80) was 93 % of control.

With `O=c1cccc2n1CC1CNC[C@H]2C1` the T/C (dose: 1.5 mg/kg/injection, schedule: Q01DX010 (ip), vehicle: saline) was 104 % of control, the T/C (dose: 3.0 mg/kg/injection, schedule: Q01DX010 (ip), vehicle: saline) was 109 % of control and the T/C (dose: 6.0 mg/kg/injection, schedule: Q01DX010 (ip), vehicle: saline) was 109 % of control.

In the case of `Cc1nc(C(N)=O)c(=O)[nH]c1C`, the T/C (dose: 6.25 mg/kg/injection, schedule: Q04DX003 (ip), vehicle: saline) is reported as 104 % of control, the T/C (dose: 12.5 mg/kg/injection, schedule: Q04DX003 (ip), vehicle: saline) is reported as 109 % of control and the T/C (dose: 25.0 mg/kg/injection, schedule: Q04DX003 (ip), vehicle: saline) is reported as 100 % of control. The T/C [18] was 88 % of control, the T/C (dose: 100.0 mg/kg/injection, schedule: Q04DX003 (ip), vehicle: saline sonified) was 104 % of control and the T/C (dose: 200.0 mg/kg/injection, schedule: Q04DX003 (ip), vehicle: saline sonified) was 104 % of control.

`CCC[CH2][Hg][Cl]` was tested, and the T/C (dose: 6.25 mg/kg/injection, schedule: Q04DX003 (ip), vehicle: saline sonified) was 115 % of control, the T/C (dose: 11.0 mg/kg/injection, schedule: Q01DX009 (ip), vehicle: saline with Tween-80) was 100 % of control and the T/C [8] was 109 % of control. For the same compound, the T/C (dose: 12.5 mg/kg/injection, schedule: Q04DX003 (ip), vehicle: saline sonified) was 110 % of control, the T/C (dose: 16.5 mg/kg/injection, schedule: Q01DX009 (ip), vehicle: saline with Tween-80) was 150 % of control and the T/C (dose: 16.5 mg/kg/injection, schedule: Q04DX003 (ip), vehicle: saline sonified) was 113 % of control. The T/C (dose: 25.0 mg/kg/injection, schedule: Q04DX003 (ip), vehicle: saline sonified) was 104 % of control and the T/C (dose: 37.5 mg/kg/injection, schedule: Q04DX003 (ip), vehicle: saline sonified) was 118 % of control.

`CC[C@H](CC[C@@H](C)[C@H]1CC[C@H]2[C@@H]3CC=C4C[C@@H](OC(=O)CN5CCNCC5)CC[C@]4(C)[C@H]3CC[C@]12C)C(C)C` was tested, and the T/C [20] was 104 % of control and the T/C [14] was 104 % of control.

In the case of `CC(=O)NC1CCCN(O)C(=O)/C=C(/C)CCOC(=O)C(NC(C)=O)CCCN(O)C(=O)/C=C(/C)CCOC(=O)C(NC(C)=O)CCCN(O)C(=O)/C=C(/C)CCOC1=O.[Fe]` (stereo not given), the T/C [19] is reported as 86 % of control, the T/C (dose: 25.0 mg/kg/injection, schedule: Q01DX009 (ip), vehicle: Klucel (hydroxypropylcellulose) (HPC)) is reported as 92 % of control and the T/C [20] is reported as 99 % of control.
